Laboratory results taken from patent publication US20140271831A1, “RACECADOTRIL LIQUID COMPOSITIONS” (McNeil-PPC, Inc., priority 2013, published 2014).

Test: Racecadotril and degradation products over time in Acetate and Citrate at pH 3.6, 4.0, 4.5 (untitled table)
Format: physicochemical
Set-up: key to Impurity C / Impurity G: % peak area relative to the Racecadotril peak
Settings: for RAC: in % (unit assumed)
Description: • 1. Pipet 1 mL of Racecadotril solution into a 100 mL volumetric flask (V.F.) • 2. Dilute to volume with the same buffer used in the solution preparation. • 3. […] Parameters may be modified to optimize chromatography. • The assay of Racecadotril is determined by using the external standard injected. The degradation products levels are determined by % peak area relative to the Racecadotril peak. [table] [table] Mobil Phase A: Phosphate buffer, pH 2.5 (Buffer prep: dissolve 1 g of potassium dihydrogen phosphate in water, adjust to pH 2.5 with phosphoric acid, dilute to 1000 mL with water) Mobil Phase B: 100% Acetonitrile

Benz Alcohol (Acetate, pH 3.6, 1 week): 0.69% | Impurity C (Acetate, pH 3.6, 1 week): 0.93 | Impurity G (Acetate, pH 3.6, 1 week): 1.17 | Thiorphan (Acetate, pH 3.6, 1 week): 0% | RAC (Acetate, pH 3.6, 1 week): 97.21 | Benz Alcohol (Acetate, pH 3.6, 2 week): 1.4% | Impurity C (Acetate, pH 3.6, 2 week): 1.87 | Impurity G (Acetate, pH 3.6, 2 week): 1.74 | Thiorphan (Acetate, pH 3.6, 2 week): 0.11% | RAC (Acetate, pH 3.6, 2 week): 94.88 | Benz Alcohol (Acetate, pH 3.6, 3 week): 2.13% | Impurity C (Acetate, pH 3.6, 3 week): 2.78 | Impurity G (Acetate, pH 3.6, 3 week): 1.93 | Thiorphan (Acetate, pH 3.6, 3 week): 0.14% | RAC (Acetate, pH 3.6, 3 week): 93.01 | Benz Alcohol (Acetate, pH 3.6, 4 week): 2.84% | Impurity C (Acetate, pH 3.6, 4 week): 3.56 | Impurity G (Acetate, pH 3.6, 4 week): 3 | Thiorphan (Acetate, pH 3.6, 4 week): 0.3% | RAC (Acetate, pH 3.6, 4 week): 90.15 | Benz Alcohol (Acetate, pH 3.6, 6 week): 4.33% | Impurity C (Acetate, pH 3.6, 6 week): 5.17 | Impurity G (Acetate, pH 3.6, 6 week): 3.82 | Thiorphan (Acetate, pH 3.6, 6 week): 0.57% | RAC (Acetate, pH 3.6, 6 week): 85.75 | Benz Alcohol (Acetate, pH 3.6, 8 week): 5.78% | Impurity C (Acetate, pH 3.6, 8 week): 6.2 | Impurity G (Acetate, pH 3.6, 8 week): 5.28 | Thiorphan (Acetate, pH 3.6, 8 week): 1% | RAC (Acetate, pH 3.6, 8 week): 80.68 | Benz Alcohol (Acetate, pH 3.6, Initial): 0% | Impurity C (Acetate, pH 3.6, Initial): 0 | Impurity G (Acetate, pH 3.6, Initial): 0.07 | Thiorphan (Acetate, pH 3.6, Initial): 0% | RAC (Acetate, pH 3.6, Initial): 99.93 | Benz Alcohol (Acetate, pH 4.0, 1 week): 0.7% | Impurity C (Acetate, pH 4.0, 1 week): 0.93 | Impurity G (Acetate, pH 4.0, 1 week): 1.36 | Thiorphan (Acetate, pH 4.0, 1 week): 0% | RAC (Acetate, pH 4.0, 1 week): 97.01 | Benz Alcohol (Acetate, pH 4.0, 2 week): 1.39% | Impurity C (Acetate, pH 4.0, 2 week): 1.82 | Impurity G (Acetate, pH 4.0, 2 week): 1.7 | Thiorphan (Acetate, pH 4.0, 2 week): 0.7% | RAC (Acetate, pH 4.0, 2 week): 95.02 | Benz Alcohol (Acetate, pH 4.0, 3 week): 2.09% | Impurity C (Acetate, pH 4.0, 3 week): 2.83 | Impurity G (Acetate, pH 4.0, 3 week): 2.66 | Thiorphan (Acetate, pH 4.0, 3 week): 0.19% | RAC (Acetate, pH 4.0, 3 week): 92.23 | Benz Alcohol (Acetate, pH 4.0, 4 week): 2.84% | Impurity C (Acetate, pH 4.0, 4 week): 3.52 | Impurity G (Acetate, pH 4.0, 4 week): 3.62 | Thiorphan (Acetate, pH 4.0, 4 week): 0.38% | RAC (Acetate, pH 4.0, 4 week): 89.5 | Benz Alcohol (Acetate, pH 4.0, 6 week): 4.28% | Impurity C (Acetate, pH 4.0, 6 week): 5.16 | Impurity G (Acetate, pH 4.0, 6 week): 5.67 | Thiorphan (Acetate, pH 4.0, 6 week): 0.71% | RAC (Acetate, pH 4.0, 6 week): 83.98 | Benz Alcohol (Acetate, pH 4.0, 8 week): 5.37% | Impurity C (Acetate, pH 4.0, 8 week): 6.2 | Impurity G (Acetate, pH 4.0, 8 week): 8.46 | Thiorphan (Acetate, pH 4.0, 8 week): 1.19% | RAC (Acetate, pH 4.0, 8 week): 78.53 | Benz Alcohol (Acetate, pH 4.0, Initial): 0% | Impurity C (Acetate, pH 4.0, Initial): 0 | Impurity G (Acetate, pH 4.0, Initial): 0 | Thiorphan (Acetate, pH 4.0, Initial): 0% | RAC (Acetate, pH 4.0, Initial): 100 | Benz Alcohol (Acetate, pH 4.5, 1 week): 0.022% | Impurity C (Acetate, pH 4.5, 1 week): 0.21 | Impurity G (Acetate, pH 4.5, 1 week): 3.17 | Thiorphan (Acetate, pH 4.5, 1 week): 0.02% | RAC (Acetate, pH 4.5, 1 week): 96.33 | Benz Alcohol (Acetate, pH 4.5, 2 week): 0.4% | Impurity C (Acetate, pH 4.5, 2 week): 0.4 | Impurity G (Acetate, pH 4.5, 2 week): 6.5 | Thiorphan (Acetate, pH 4.5, 2 week): 0.04% | RAC (Acetate, pH 4.5, 2 week): 92.61 | Benz Alcohol (Acetate, pH 4.5, 3 week): 0.59% | Impurity C (Acetate, pH 4.5, 3 week): 0.58 | Impurity G (Acetate, pH 4.5, 3 week): 9.43 | Thiorphan (Acetate, pH 4.5, 3 week): 0.06% | RAC (Acetate, pH 4.5, 3 week): 89.29 | Benz Alcohol (Acetate, pH 4.5, 4 week): 0.79% | Impurity C (Acetate, pH 4.5, 4 week): 0.72 | Impurity G (Acetate, pH 4.5, 4 week): 11.84 | Thiorphan (Acetate, pH 4.5, 4 week): 0.11% | RAC (Acetate, pH 4.5, 4 week): 86.5 | Benz Alcohol (Acetate, pH 4.5, 6 week): 1.14% | Impurity C (Acetate, pH 4.5, 6 week): 1.04 | Impurity G (Acetate, pH 4.5, 6 week): 17.32 | Thiorphan (Acetate, pH 4.5, 6 week): 0.2% | RAC (Acetate, pH 4.5, 6 week): 80.25 | Benz Alcohol (Acetate, pH 4.5, 8 week): 1.51% | Impurity C (Acetate, pH 4.5, 8 week): 1.25 | Impurity G (Acetate, pH 4.5, 8 week): 21.73 | Thiorphan (Acetate, pH 4.5, 8 week): 0.36% | RAC (Acetate, pH 4.5, 8 week): 75.06 | Benz Alcohol (Acetate, pH 4.5, Initial): 0.02% | Impurity C (Acetate, pH 4.5, Initial): 0.02 | Impurity G (Acetate, pH 4.5, Initial): 0.21 | Thiorphan (Acetate, pH 4.5, Initial): 0.01% | RAC (Acetate, pH 4.5, Initial): 99.68 | Benz Alcohol (Citrate, pH 3.6, 1 week): 0.79% | Impurity C (Citrate, pH 3.6, 1 week): 0.98 | Impurity G (Citrate, pH 3.6, 1 week): 1.78 | Thiorphan (Citrate, pH 3.6, 1 week): 0% | RAC (Citrate, pH 3.6, 1 week): 96.45 | Benz Alcohol (Citrate, pH 3.6, 2 week): 1.72% | Impurity C (Citrate, pH 3.6, 2 week): 2.3 | Impurity G (Citrate, pH 3.6, 2 week): 3.81 | Thiorphan (Citrate, pH 3.6, 2 week): 0.13% | RAC (Citrate, pH 3.6, 2 week): 92.01 | Benz Alcohol (Citrate, pH 3.6, 3 week): 2.59% | Impurity C (Citrate, pH 3.6, 3 week): 3.36 | Impurity G (Citrate, pH 3.6, 3 week): 5.52 | Thiorphan (Citrate, pH 3.6, 3 week): 0.31% | RAC (Citrate, pH 3.6, 3 week): 88.22 | Benz Alcohol (Citrate, pH 3.6, 4 week): 3.38% | Impurity C (Citrate, pH 3.6, 4 week): 4.23 | Impurity G (Citrate, pH 3.6, 4 week): 7.38 | Thiorphan (Citrate, pH 3.6, 4 week): 0.47% | RAC (Citrate, pH 3.6, 4 week): 84.51 | Benz Alcohol (Citrate, pH 3.6, 6 week): 5.09% | Impurity C (Citrate, pH 3.6, 6 week): 6.13 | Impurity G (Citrate, pH 3.6, 6 week): 9.72 | Thiorphan (Citrate, pH 3.6, 6 week): 1.11% | RAC (Citrate, pH 3.6, 6 week): 77.91 | Benz Alcohol (Citrate, pH 3.6, 8 week): 6.64% | Impurity C (Citrate, pH 3.6, 8 week): 7.54 | Impurity G (Citrate, pH 3.6, 8 week): 12.47 | Thiorphan (Citrate, pH 3.6, 8 week): 1.8% | RAC (Citrate, pH 3.6, 8 week): 71.51 | Benz Alcohol (Citrate, pH 3.6, Initial): 0% | Impurity C (Citrate, pH 3.6, Initial): 0 | Impurity G (Citrate, pH 3.6, Initial): 0.09 | Thiorphan (Citrate, pH 3.6, Initial): 0% | RAC (Citrate, pH 3.6, Initial): 99.91 | Benz Alcohol (Citrate, pH 4.0, 1 week): 0.89% | Impurity C (Citrate, pH 4.0, 1 week): 1.23 | Impurity G (Citrate, pH 4.0, 1 week): 1.95 | Thiorphan (Citrate, pH 4.0, 1 week): 0% | RAC (Citrate, pH 4.0, 1 week): 95.93 | Benz Alcohol (Citrate, pH 4.0, 2 week): 1.41% | Impurity C (Citrate, pH 4.0, 2 week): 1.82 | Impurity G (Citrate, pH 4.0, 2 week): 3.47 | Thiorphan (Citrate, pH 4.0, 2 week): 0.11% | RAC (Citrate, pH 4.0, 2 week): 93.19 | Benz Alcohol (Citrate, pH 4.0, 3 week): 2.36% | Impurity C (Citrate, pH 4.0, 3 week): 2.82 | Impurity G (Citrate, pH 4.0, 3 week): 4.79 | Thiorphan (Citrate, pH 4.0, 3 week): 0.21% | RAC (Citrate, pH 4.0, 3 week): 89.91 | Benz Alcohol (Citrate, pH 4.0, 4 week): 2.79% | Impurity C (Citrate, pH 4.0, 4 week): 3.43 | Impurity G (Citrate, pH 4.0, 4 week): 6.57 | Thiorphan (Citrate, pH 4.0, 4 week): 0.4% | RAC (Citrate, pH 4.0, 4 week): 86.78 | Benz Alcohol (Citrate, pH 4.0, 6 week): 4.19% | Impurity C (Citrate, pH 4.0, 6 week): 4.98 | Impurity G (Citrate, pH 4.0, 6 week): 9.24 | Thiorphan (Citrate, pH 4.0, 6 week): 0.85% | RAC (Citrate, pH 4.0, 6 week): 80.7 | Benz Alcohol (Citrate, pH 4.0, 8 week): 5.54% | Impurity C (Citrate, pH 4.0, 8 week): 6.22 | Impurity G (Citrate, pH 4.0, 8 week): 11.26 | Thiorphan (Citrate, pH 4.0, 8 week): 1.42% | RAC (Citrate, pH 4.0, 8 week): 75.6 | Benz Alcohol (Citrate, pH 4.0, Initial): 0% | Impurity C (Citrate, pH 4.0, Initial): 0 | Impurity G (Citrate, pH 4.0, Initial): 0 | Thiorphan (Citrate, pH 4.0, Initial): 0% | RAC (Citrate, pH 4.0, Initial): 100 | Benz Alcohol (Citrate, pH 4.5, 1 week): 0.22% | Impurity C (Citrate, pH 4.5, 1 week): 0.18 | Impurity G (Citrate, pH 4.5, 1 week): 3.15 | Thiorphan (Citrate, pH 4.5, 1 week): 0.01% | RAC (Citrate, pH 4.5, 1 week): 96.44 | Benz Alcohol (Citrate, pH 4.5, 2 week): 0.4% | Impurity C (Citrate, pH 4.5, 2 week): 0.36 | Impurity G (Citrate, pH 4.5, 2 week): 6.04 | Thiorphan (Citrate, pH 4.5, 2 week): 0.03% | RAC (Citrate, pH 4.5, 2 week): 93.19 | Benz Alcohol (Citrate, pH 4.5, 3 week): 0.59% | Impurity C (Citrate, pH 4.5, 3 week): 0.52 | Impurity G (Citrate, pH 4.5, 3 week): 8.66 | Thiorphan (Citrate, pH 4.5, 3 week): 0.06% | RAC (Citrate, pH 4.5, 3 week): 90.2 | Benz Alcohol (Citrate, pH 4.5, 4 week): 0.79% | Impurity C (Citrate, pH 4.5, 4 week): 0.62 | Impurity G (Citrate, pH 4.5, 4 week): 11.16 | Thiorphan (Citrate, pH 4.5, 4 week): 0.1% | RAC (Citrate, pH 4.5, 4 week): 87.41 | Benz Alcohol (Citrate, pH 4.5, 6 week): 1.14% | Impurity C (Citrate, pH 4.5, 6 week): 0.9 | Impurity G (Citrate, pH 4.5, 6 week): 15.86 | Thiorphan (Citrate, pH 4.5, 6 week): 0.17% | RAC (Citrate, pH 4.5, 6 week): 82.05 | Benz Alcohol (Citrate, pH 4.5, 8 week): 1.51% | Impurity C (Citrate, pH 4.5, 8 week): 1.11 | Impurity G (Citrate, pH 4.5, 8 week): 19.95 | Thiorphan (Citrate, pH 4.5, 8 week): 0.29% | RAC (Citrate, pH 4.5, 8 week): 77.34 | Benz Alcohol (Citrate, pH 4.5, Initial): 0.02% | Impurity C (Citrate, pH 4.5, Initial): 0.01 | Impurity G (Citrate, pH 4.5, Initial): 0.19 | Thiorphan (Citrate, pH 4.5, Initial): 0.01% | RAC (Citrate, pH 4.5, Initial): 99.71
Structure (SMILES): CC(=O)SCC(Cc1ccccc1)C(=O)NCC(=O)OCc1ccccc1 (racemic) [Racecadotril]
